The target of the assay is S. aureus DNA gyrase (Staphylococcus aureus, UniProt P0A0K8+P20831). Put plainly: DNA gyrase supercoiling inhibition assay. It counts as biochemical. The following applies: read-out: IC50(μM) (mean ± SEM) / S. aureusDNA gyrase supercoiling.

Data on two compounds can be found in publication PMC11904721 (ACS Omega, 2025).

Sequence of S. aureus DNA gyrase (P20831 whole entry): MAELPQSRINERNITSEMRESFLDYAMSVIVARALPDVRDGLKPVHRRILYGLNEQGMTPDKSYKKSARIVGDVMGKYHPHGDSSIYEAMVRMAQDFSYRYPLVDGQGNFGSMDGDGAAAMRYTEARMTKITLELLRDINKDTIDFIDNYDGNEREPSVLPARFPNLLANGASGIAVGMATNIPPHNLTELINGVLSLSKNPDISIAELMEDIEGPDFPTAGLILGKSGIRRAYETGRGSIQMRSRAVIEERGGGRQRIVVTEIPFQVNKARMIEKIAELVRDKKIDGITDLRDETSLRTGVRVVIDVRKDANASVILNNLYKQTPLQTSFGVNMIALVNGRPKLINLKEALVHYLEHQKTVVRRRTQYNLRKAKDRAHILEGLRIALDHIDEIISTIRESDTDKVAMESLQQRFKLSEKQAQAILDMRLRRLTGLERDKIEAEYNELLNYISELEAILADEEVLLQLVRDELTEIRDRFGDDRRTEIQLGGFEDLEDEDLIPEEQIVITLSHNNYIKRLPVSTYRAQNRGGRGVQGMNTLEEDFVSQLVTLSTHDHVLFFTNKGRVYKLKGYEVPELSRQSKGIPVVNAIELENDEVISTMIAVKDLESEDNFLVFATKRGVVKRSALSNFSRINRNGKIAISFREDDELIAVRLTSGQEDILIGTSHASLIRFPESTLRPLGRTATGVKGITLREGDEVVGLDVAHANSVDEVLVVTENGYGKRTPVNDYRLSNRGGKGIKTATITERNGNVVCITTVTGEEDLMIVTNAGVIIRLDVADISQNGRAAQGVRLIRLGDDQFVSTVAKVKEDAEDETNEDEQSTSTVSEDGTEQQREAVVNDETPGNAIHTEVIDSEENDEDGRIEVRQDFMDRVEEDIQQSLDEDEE
Sequence of S. aureus DNA gyrase (P0A0K8 2-644): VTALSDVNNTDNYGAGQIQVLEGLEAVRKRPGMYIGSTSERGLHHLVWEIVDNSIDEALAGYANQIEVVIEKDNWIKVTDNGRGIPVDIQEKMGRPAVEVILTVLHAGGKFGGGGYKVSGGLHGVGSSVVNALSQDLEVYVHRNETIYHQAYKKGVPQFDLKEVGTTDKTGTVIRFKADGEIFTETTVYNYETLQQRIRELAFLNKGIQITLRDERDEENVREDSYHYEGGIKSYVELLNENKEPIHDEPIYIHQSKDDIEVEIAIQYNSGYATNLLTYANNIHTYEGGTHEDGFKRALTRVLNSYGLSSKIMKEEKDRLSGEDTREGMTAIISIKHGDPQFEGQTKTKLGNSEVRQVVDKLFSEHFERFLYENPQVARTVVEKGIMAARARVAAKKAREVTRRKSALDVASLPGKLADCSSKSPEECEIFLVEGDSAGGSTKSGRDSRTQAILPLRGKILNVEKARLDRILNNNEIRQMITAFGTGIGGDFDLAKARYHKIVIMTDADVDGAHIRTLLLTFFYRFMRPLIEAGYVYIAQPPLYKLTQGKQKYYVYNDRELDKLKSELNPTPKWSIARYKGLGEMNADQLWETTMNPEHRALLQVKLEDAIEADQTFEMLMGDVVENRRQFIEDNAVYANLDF

For the compound `CS(=O)(=O)N1SCC(=O)c2c1sc1c2SC2N(c3ccccc3)C(=O)c3ccccc3N12` (centres unmarked) [compound 4, 11-(methylsulfonyl)-6-phenyl-6,6a-dihydro-5H,9H-[1,2]thiazino[4″,3”:4′,5′]thieno[2′,3′:4,5]thiazolo[3,2-a]quinazoline-5,8(11H)-dione], the IC50 worked out at 11.7 ± 0.47 µM.
The value for `CCOC(=O)c1c(-n2cnnn2)sc2c1SC1N(c3ccccc3)C(=O)c3ccccc3N21` (centres unmarked) [compound 5, Ethyl 5-Oxo-6-phenyl-9-(1H-tetrazol-1-yl)-6,6a-dihydro-5H-thieno[2′,3′:4,5]thiazolo[3,2-a]quinazoline-8-carboxylate] was 7.13 ± 0.28 µM.
